From patent US8735601B2, “Pentamethine cyanine fluorescent dye with N-substituting at β-position of conjugated chain” (Dalian University of Technology, priority 2010, dated 2014)

Tests used:
[1] = Absorption and emission spectra of dyes in different solvents; type: physicochemical; parameters: key to Δλ1 / Δλ2: Stokes shift in nm; ε1 (molar extinction coefficient) / ε2 (molar extinction coefficient): scale not given here; conditions: for Δλ1: Stokes shift to absorption peak 1; for Δλ2: Stokes shift to absorption peak 2
Excerpt: In the present invention, compounds IIa to IIg were synthesized based on compound II, and their spectral properties were investigated. Compared with the traditional pentamethine cyanine dye, for the novel pentamethine cyanine dye with N-substituting at β-position (deviated position), it was observed that, evident blue shift of absorption and emission wavelengths occurred, absorption wavelength blue shifted even largely than that of emission wavelength, absorption spectrum and fluorescence spectrum were no longer mirror-symmetric and had two absorption peaks and a single emission peak, and larger Stokes shift (minimum 60 and 150 nm, and maximum 90 and 230 nm) appeared.

[2] = Measurement of fluorescence quantum yield (Rhodamine B in ethanol as reference); type: physicochemical

CCN1/C(=C/C=C/C(=C/C2=[N+](CC)c3ccccc3C2(C)C)NCc2ccccc2)C(C)(C)c2ccccc21 [Dye IIe]
Δλ1 ([1]; solvent DCM): 81
Δλ1 ([1]; solvent DMSO): 92
Δλ1 ([1]; solvent Ethanol): 89
Δλ1 ([1]; solvent Methanol): 88
Δλ1 ([1]; solvent THF): 86
Δλ1 ([1]; solvent Water): 101
Δλ2 ([1]; solvent DCM): 185
Δλ2 ([1]; solvent DMSO): 174
Δλ2 ([1]; solvent Ethanol): 179
Δλ2 ([1]; solvent Methanol): 174
Δλ2 ([1]; solvent THF): 170
Δλ2 ([1]; solvent Water): 188
ε1 (molar extinction coefficient) ([1]; solvent DCM): 2.8 cm^−1M
ε2 (molar extinction coefficient) ([1]; solvent DCM): 2.1 cm^−1M
λabs1 ([1]; solvent DCM): 522 nm
λbs2 ([1]; solvent DCM): 418 nm
λem ([1]; solvent DCM): 603 nm
ε1 (molar extinction coefficient) ([1]; solvent DMSO): 2.6 cm^−1M
ε2 (molar extinction coefficient) ([1]; solvent DMSO): 2.3 cm^−1M
λabs1 ([1]; solvent DMSO): 515 nm
λbs2 ([1]; solvent DMSO): 433 nm
λem ([1]; solvent DMSO): 607 nm
ε1 (molar extinction coefficient) ([1]; solvent Ethanol): 2.8 cm^−1M
ε2 (molar extinction coefficient) ([1]; solvent Ethanol): 2.3 cm^−1M
λabs1 ([1]; solvent Ethanol): 519 nm
λbs2 ([1]; solvent Ethanol): 429 nm
λem ([1]; solvent Ethanol): 608 nm
ε1 (molar extinction coefficient) ([1]; solvent Methanol): 2.7 cm^−1M
ε2 (molar extinction coefficient) ([1]; solvent Methanol): 2.2 cm^−1M
λabs1 ([1]; solvent Methanol): 517 nm
λbs2 ([1]; solvent Methanol): 431 nm
λem ([1]; solvent Methanol): 605 nm
ε1 (molar extinction coefficient) ([1]; solvent THF): 2.9 cm^−1M
ε2 (molar extinction coefficient) ([1]; solvent THF): 2.2 cm^−1M
λabs1 ([1]; solvent THF): 510 nm
λbs2 ([1]; solvent THF): 426 nm
λem ([1]; solvent THF): 596 nm
ε1 (molar extinction coefficient) ([1]; solvent Water): 2.3 cm^−1M
ε2 (molar extinction coefficient) ([1]; solvent Water): 1.9 cm^−1M
λabs1 ([1]; solvent Water): 516 nm
λbs2 ([1]; solvent Water): 429 nm
λem ([1]; solvent Water): 617 nm
Φ1 (fluorescence quantum yield) ([2]; solvent DCM): 0.106
Φ2 (fluorescence quantum yield) ([2]; solvent DCM): 0.075
Φ1 (fluorescence quantum yield) ([2]; solvent DMSO): 0.009
Φ2 (fluorescence quantum yield) ([2]; solvent DMSO): 0.008
Φ1 (fluorescence quantum yield) ([2]; solvent Ethanol): 0.019
Φ2 (fluorescence quantum yield) ([2]; solvent Ethanol): 0.017
Φ1 (fluorescence quantum yield) ([2]; solvent Methanol): 0.008
Φ2 (fluorescence quantum yield) ([2]; solvent Methanol): 0.007
Φ1 (fluorescence quantum yield) ([2]; solvent THF): 0.085
Φ2 (fluorescence quantum yield) ([2]; solvent THF): 0.075
Φ1 (fluorescence quantum yield) ([2]; solvent Water): 0.003
Φ2 (fluorescence quantum yield) ([2]; solvent Water): 0.001

CCN(CC)C(=C\C1=[N+](CC)c2ccccc2C1(C)C)/C=C/C=C1/N(CC)c2ccccc2C1(C)C [Dye IId]
Δλ1 ([1]; solvent DCM): 88
Δλ1 ([1]; solvent DMSO): 92
Δλ1 ([1]; solvent Ethanol): 94
Δλ1 ([1]; solvent Methanol): 96
Δλ1 ([1]; solvent THF): 87
Δλ1 ([1]; solvent Water): 99
Δλ2 ([1]; solvent DCM): 158
Δλ2 ([1]; solvent DMSO): 140
Δλ2 ([1]; solvent Ethanol): 157
Δλ2 ([1]; solvent Methanol): 158
Δλ2 ([1]; solvent THF): 154
Δλ2 ([1]; solvent Water): 152
ε1 (molar extinction coefficient) ([1]; solvent DCM): 4.3 cm^−1M
ε2 (molar extinction coefficient) ([1]; solvent DCM): 2.9 cm^−1M
λabs1 ([1]; solvent DCM): 523 nm
λbs2 ([1]; solvent DCM): 453 nm
λem ([1]; solvent DCM): 611 nm
ε1 (molar extinction coefficient) ([1]; solvent DMSO): 3.9 cm^−1M
ε2 (molar extinction coefficient) ([1]; solvent DMSO): 2.7 cm^−1M
λabs1 ([1]; solvent DMSO): 508 nm
λbs2 ([1]; solvent DMSO): 460 nm
λem ([1]; solvent DMSO): 600 nm
ε1 (molar extinction coefficient) ([1]; solvent Ethanol): 3.5 cm^−1M
ε2 (molar extinction coefficient) ([1]; solvent Ethanol): 2.5 cm^−1M
λabs1 ([1]; solvent Ethanol): 516 nm
λbs2 ([1]; solvent Ethanol): 453 nm
λem ([1]; solvent Ethanol): 610 nm
ε1 (molar extinction coefficient) ([1]; solvent Methanol): 3.9 cm^−1M
ε2 (molar extinction coefficient) ([1]; solvent Methanol): 2.8 cm^−1M
λabs1 ([1]; solvent Methanol): 513 nm
λbs2 ([1]; solvent Methanol): 451 nm
λem ([1]; solvent Methanol): 609 nm
ε1 (molar extinction coefficient) ([1]; solvent THF): 4.1 cm^−1M
ε2 (molar extinction coefficient) ([1]; solvent THF): 2.1 cm^−1M
λabs1 ([1]; solvent THF): 517 nm
λbs2 ([1]; solvent THF): 450 nm
λem ([1]; solvent THF): 604 nm
ε1 (molar extinction coefficient) ([1]; solvent Water): 2.9 cm^−1M
ε2 (molar extinction coefficient) ([1]; solvent Water): 2.3 cm^−1M
λabs1 ([1]; solvent Water): 501 nm
λbs2 ([1]; solvent Water): 448 nm
λem ([1]; solvent Water): 600 nm
Φ1 (fluorescence quantum yield) ([2]; solvent DCM): 0.124
Φ2 (fluorescence quantum yield) ([2]; solvent DCM): 0.085
Φ1 (fluorescence quantum yield) ([2]; solvent DMSO): 0.004
Φ2 (fluorescence quantum yield) ([2]; solvent DMSO): 0.004
Φ1 (fluorescence quantum yield) ([2]; solvent Ethanol): 0.009
Φ2 (fluorescence quantum yield) ([2]; solvent Ethanol): 0.009
Φ1 (fluorescence quantum yield) ([2]; solvent Methanol): 0.005
Φ2 (fluorescence quantum yield) ([2]; solvent Methanol): 0.005
Φ1 (fluorescence quantum yield) ([2]; solvent THF): 0.030
Φ2 (fluorescence quantum yield) ([2]; solvent THF): 0.022
Φ1 (fluorescence quantum yield) ([2]; solvent Water): 0.001
Φ2 (fluorescence quantum yield) ([2]; solvent Water): 0.001
